Results reported in patent publication US12240816B2, “Deuterated compounds and uses thereof” (Aldeyra Therapeutics, Inc., priority 2015, dated 2025).

Assays:
Assay in all cases: biochemical
Type in all cases: biochemical
[1] = molecular target: enzyme and uptake assay panel targets (Table 36) (Homo sapiens, UniProt P06213); conditions: IRK (h)(InsR); 1.0E−05M
[2] = molecular target: enzyme and uptake assay panel targets (Table 36) (Homo sapiens, UniProt P09917); conditions: 5-lipoxygenase (h); 1.0E−05M
[3] = molecular target: enzyme and uptake assay panel targets (Table 36) (Mus musculus, UniProt P29477); conditions: inducible NOS; 1.0E−05M
[4] = molecular target: enzyme and uptake assay panel targets (Table 36) (Homo sapiens, UniProt P28482); conditions: ERK2 (h) (P42^mapk); 1.0E−05M
[5] = molecular target: enzyme and uptake assay panel targets (Table 36) (Homo sapiens, UniProt P08253); conditions: MMP-2 (h); 1.0E−05M
[6] = molecular target: enzyme and uptake assay panel targets (Table 36) (Homo sapiens, UniProt P08473); conditions: Peptidase, Metalloproteinase, Neutral Endopeptidase; 1.0E−05M
[7] = molecular target: enzyme and uptake assay panel targets (Table 36) (Homo sapiens, UniProt P24941); conditions: CDK2 (h) (cycA); 1.0E−05M
[8] = molecular target: enzyme and uptake assay panel targets (Table 36) (Homo sapiens, UniProt Q9UQM7); conditions: CaMK2α (h); 1.0E−05M
[9] = molecular target: enzyme and uptake assay panel targets (Table 36) (Homo sapiens, UniProt P42574); conditions: caspase-3 (h); 1.0E−05M
[10] = molecular target: enzyme and uptake assay panel targets (Table 36) (Homo sapiens, UniProt Q9BYF1); conditions: ACE-2 (h); 1.0E−05M; flag INTER: Test compound interferes with the assay detection method
[11] = molecular target: enzyme and uptake assay panel targets (Table 36) (Homo sapiens, UniProt O76074); conditions: PDE5 (h) (non-selective); 1.0E−05M
[12] = molecular target: enzyme and uptake assay panel targets (Table 36) (Homo sapiens, UniProt P35354); conditions: COX2(h); 1.0E−05M
[13] = molecular target: enzyme and uptake assay panel targets (Table 36) (Homo sapiens, UniProt P23219); conditions: COX1(h); 1.0E−05M
[14] = molecular target: enzyme and uptake assay panel targets (Table 36) (Homo sapiens, UniProt P12821); conditions: ACE (h); 1.0E−05M; flag INTER: Test compound interferes with the assay detection method
[15] = molecular target: enzyme and uptake assay panel targets (Table 36) (Homo sapiens, UniProt Q13370); conditions: PDE3B (h); 1.0E−05M
[16] = molecular target: enzyme and uptake assay panel targets (Table 36) (Homo sapiens, UniProt P07948); conditions: Lyn A kinase (h); 1.0E−05M
[17] = molecular target: enzyme and uptake assay panel targets (Table 36) (Homo sapiens, UniProt Q16539); conditions: p38α kinase (h); 1.0E−05M
[18] = molecular target: enzyme and uptake assay panel targets (Table 36) (Homo sapiens, UniProt Q08499); conditions: PDE4D2 (h); 1.0E−05M
[19] = molecular target: enzyme and uptake assay panel targets (Table 36) (Homo sapiens, UniProt P18054); conditions: 12-lipoxygenase (h); 1.0E−05M
[20] = molecular target: enzyme and uptake assay panel targets (Table 36) (Homo sapiens, UniProt O00408); conditions: PDE2A1 (h); 1.0E−05M
[21] = test system: enzyme and uptake assay panel targets (Table 36); conditions: COMT (catechol-O-methyl transferase); 1.0E−05M; flag INTER: Test compound interferes with the assay detection method
[22] = test system: T1, enzyme and uptake assay panel targets (Table 36); conditions: ATPase (Na+/K+); 1.0E−05M
T1 construct: other: ATPase (Na+/K+); 1.0E−05M; nH; porcine cerebral cortex

[23] = molecular target: enzyme and uptake assay panel targets (Table 36) (Homo sapiens, UniProt P27338); conditions: MAO-B (h) recombinant enzyme; 1.0E−05M

Chain of enzyme and uptake assay panel targets (Table 36) (Mus musculus, UniProt P29477) (P29477 whole entry): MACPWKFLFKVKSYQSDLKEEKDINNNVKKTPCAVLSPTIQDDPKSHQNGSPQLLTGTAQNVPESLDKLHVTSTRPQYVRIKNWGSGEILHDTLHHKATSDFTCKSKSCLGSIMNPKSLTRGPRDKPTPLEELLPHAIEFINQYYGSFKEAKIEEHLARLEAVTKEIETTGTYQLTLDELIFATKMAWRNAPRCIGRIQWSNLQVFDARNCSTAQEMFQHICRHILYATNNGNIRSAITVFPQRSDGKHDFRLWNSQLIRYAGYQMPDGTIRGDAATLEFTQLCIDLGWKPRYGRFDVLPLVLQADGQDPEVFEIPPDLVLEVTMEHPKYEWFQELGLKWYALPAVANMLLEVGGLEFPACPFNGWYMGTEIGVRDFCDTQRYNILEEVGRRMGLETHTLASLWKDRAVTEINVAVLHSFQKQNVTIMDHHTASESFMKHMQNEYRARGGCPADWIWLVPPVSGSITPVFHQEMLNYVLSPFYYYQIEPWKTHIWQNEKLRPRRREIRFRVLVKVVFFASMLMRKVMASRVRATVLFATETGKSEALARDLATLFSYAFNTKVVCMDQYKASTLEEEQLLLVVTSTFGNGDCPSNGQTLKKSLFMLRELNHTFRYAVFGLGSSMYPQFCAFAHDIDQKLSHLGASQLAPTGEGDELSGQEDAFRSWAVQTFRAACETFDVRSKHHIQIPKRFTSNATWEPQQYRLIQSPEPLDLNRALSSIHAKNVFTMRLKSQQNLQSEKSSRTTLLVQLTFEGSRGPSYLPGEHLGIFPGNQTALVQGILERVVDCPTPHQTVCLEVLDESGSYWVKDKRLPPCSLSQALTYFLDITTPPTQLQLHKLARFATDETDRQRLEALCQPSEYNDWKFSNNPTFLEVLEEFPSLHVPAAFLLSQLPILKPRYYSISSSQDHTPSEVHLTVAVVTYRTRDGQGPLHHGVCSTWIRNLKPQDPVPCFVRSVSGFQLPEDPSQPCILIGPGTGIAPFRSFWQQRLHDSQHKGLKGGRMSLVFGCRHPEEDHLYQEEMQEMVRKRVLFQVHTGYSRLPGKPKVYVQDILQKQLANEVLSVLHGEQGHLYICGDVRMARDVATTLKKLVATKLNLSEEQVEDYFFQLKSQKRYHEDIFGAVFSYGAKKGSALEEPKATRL
Chain of enzyme and uptake assay panel targets (Table 36) (Homo sapiens, UniProt Q16539) (Q16539 whole entry): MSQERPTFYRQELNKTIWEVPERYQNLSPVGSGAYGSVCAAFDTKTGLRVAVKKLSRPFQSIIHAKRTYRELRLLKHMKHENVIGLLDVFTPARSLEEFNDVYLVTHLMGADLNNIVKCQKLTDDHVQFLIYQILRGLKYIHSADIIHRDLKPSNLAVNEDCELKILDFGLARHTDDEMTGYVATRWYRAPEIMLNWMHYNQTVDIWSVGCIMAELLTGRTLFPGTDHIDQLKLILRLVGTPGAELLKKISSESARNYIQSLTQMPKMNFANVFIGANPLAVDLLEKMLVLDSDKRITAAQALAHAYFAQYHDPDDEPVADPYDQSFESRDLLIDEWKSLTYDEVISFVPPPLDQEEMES
Chain of enzyme and uptake assay panel targets (Table 36) (Homo sapiens, UniProt Q08499) (Q08499 whole entry): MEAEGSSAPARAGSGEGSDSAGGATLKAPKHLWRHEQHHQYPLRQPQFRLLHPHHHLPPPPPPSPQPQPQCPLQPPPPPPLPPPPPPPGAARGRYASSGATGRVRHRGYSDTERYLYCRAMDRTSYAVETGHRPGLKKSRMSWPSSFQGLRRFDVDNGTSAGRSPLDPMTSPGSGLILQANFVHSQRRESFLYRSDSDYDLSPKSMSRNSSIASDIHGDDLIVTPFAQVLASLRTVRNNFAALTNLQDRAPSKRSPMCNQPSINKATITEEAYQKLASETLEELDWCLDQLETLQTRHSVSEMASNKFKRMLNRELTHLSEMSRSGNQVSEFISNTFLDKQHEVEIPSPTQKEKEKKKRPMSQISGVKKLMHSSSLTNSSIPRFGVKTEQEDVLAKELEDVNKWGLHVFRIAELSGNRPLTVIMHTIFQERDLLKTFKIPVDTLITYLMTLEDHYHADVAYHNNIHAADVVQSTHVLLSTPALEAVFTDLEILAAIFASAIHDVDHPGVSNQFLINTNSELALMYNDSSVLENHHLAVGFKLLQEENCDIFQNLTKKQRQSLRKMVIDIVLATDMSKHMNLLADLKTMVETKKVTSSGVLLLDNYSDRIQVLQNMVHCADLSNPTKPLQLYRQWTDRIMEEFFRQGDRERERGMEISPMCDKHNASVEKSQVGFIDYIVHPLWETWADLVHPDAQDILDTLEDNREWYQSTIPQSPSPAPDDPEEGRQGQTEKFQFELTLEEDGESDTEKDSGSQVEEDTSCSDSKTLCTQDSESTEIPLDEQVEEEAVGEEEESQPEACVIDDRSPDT
Chain of enzyme and uptake assay panel targets (Table 36) (Homo sapiens, UniProt P42574) (P42574 29-277): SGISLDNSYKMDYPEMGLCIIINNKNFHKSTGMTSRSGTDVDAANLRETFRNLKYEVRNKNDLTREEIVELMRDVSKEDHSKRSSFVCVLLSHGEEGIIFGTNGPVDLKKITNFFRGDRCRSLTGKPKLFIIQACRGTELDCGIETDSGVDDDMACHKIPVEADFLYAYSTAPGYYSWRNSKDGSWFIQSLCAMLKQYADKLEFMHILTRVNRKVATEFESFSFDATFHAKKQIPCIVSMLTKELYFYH
Chain of enzyme and uptake assay panel targets (Table 36) (Homo sapiens, UniProt P35354) (P35354 18-604): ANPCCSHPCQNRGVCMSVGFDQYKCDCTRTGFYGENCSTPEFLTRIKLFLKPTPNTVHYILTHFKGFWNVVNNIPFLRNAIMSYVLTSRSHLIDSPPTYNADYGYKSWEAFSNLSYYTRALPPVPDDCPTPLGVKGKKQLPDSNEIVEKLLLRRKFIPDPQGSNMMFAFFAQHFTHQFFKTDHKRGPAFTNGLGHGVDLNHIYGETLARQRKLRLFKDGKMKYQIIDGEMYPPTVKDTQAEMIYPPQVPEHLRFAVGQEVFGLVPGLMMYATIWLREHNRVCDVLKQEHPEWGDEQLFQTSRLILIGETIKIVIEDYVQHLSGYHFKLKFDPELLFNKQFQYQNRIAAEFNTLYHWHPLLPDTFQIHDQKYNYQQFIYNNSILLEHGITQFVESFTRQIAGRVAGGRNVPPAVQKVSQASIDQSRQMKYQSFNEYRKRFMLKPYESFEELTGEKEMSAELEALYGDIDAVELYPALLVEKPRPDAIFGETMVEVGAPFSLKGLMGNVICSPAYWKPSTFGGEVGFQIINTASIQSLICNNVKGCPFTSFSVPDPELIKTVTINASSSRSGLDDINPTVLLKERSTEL
Chain of enzyme and uptake assay panel targets (Table 36) (Homo sapiens, UniProt P18054) (P18054 whole entry): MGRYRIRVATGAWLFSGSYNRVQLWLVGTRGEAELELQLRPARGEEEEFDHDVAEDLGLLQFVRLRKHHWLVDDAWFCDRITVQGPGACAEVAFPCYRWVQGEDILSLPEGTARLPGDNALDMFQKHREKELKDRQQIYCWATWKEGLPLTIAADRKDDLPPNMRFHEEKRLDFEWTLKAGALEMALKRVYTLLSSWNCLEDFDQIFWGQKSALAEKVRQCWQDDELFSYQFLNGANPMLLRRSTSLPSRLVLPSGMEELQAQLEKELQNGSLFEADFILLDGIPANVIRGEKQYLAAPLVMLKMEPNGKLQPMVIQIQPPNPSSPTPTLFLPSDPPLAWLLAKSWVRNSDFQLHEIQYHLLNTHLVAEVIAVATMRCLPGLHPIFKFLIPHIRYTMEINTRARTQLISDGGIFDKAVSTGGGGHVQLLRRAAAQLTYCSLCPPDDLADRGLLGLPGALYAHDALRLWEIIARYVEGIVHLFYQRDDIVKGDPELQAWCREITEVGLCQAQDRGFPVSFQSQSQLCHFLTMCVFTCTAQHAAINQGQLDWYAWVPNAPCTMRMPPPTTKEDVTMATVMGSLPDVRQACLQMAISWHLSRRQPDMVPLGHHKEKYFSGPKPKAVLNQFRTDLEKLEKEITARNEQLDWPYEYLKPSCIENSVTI
Chain of enzyme and uptake assay panel targets (Table 36) (Homo sapiens, UniProt P08253) (P08253 110-660): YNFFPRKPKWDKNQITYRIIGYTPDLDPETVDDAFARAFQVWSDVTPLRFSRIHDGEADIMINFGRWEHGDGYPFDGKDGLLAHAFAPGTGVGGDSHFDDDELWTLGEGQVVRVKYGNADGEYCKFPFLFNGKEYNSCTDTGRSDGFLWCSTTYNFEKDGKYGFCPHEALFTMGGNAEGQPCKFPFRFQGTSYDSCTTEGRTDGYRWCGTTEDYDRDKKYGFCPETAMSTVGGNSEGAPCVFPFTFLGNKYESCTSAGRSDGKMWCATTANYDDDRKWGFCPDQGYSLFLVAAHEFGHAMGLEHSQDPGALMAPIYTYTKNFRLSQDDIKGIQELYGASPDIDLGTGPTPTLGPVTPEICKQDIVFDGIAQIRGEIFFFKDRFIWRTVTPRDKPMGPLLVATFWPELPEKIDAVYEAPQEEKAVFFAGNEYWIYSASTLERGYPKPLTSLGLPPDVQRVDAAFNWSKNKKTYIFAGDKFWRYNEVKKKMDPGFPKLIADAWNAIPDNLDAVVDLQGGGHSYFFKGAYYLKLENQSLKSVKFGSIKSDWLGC
Chain of enzyme and uptake assay panel targets (Table 36) (Homo sapiens, UniProt P07948) (P07948 whole entry): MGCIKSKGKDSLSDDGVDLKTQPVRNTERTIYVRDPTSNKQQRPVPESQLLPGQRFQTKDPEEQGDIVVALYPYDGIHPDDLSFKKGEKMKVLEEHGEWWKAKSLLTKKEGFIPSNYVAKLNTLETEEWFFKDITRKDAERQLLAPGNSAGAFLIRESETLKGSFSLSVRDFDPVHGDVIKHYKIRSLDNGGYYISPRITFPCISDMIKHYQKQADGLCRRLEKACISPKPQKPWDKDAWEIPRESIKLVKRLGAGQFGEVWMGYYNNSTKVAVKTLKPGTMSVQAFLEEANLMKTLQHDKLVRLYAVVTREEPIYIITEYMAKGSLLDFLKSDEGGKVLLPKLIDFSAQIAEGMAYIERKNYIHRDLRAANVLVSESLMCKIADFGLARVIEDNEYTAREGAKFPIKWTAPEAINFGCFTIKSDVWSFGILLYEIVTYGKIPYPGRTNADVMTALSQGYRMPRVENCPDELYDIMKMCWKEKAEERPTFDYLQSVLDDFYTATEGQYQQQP

## [2H]C([2H])([2H])C(O)(c1nc2ccc(Cl)cc2cc1N)C([2H])([2H])[2H] [Compound I-1]
[1]
  % inhibition of Control Values 1st: −15.1%
  % inhibition of Control Values 2nd: −7.9%
  % inhibition of Control Values Mean: −11.5%
[2]
  % inhibition of Control Values 1st: 23.5%
  % inhibition of Control Values 2nd: 24.8%
  % inhibition of Control Values Mean: 24.2%
[3]
  % inhibition of Control Values 1st: 2.8%
  % inhibition of Control Values 2nd: −2.0%
  % inhibition of Control Values Mean: 0.4%
[4]
  % inhibition of Control Values 1st: −6.3%
  % inhibition of Control Values 2nd: −1.3%
  % inhibition of Control Values Mean: −3.8%
[5]
  % inhibition of Control Values 1st: 4.9%
  % inhibition of Control Values 2nd: −2.4%
  % inhibition of Control Values Mean: 1.3%
[6]
  % inhibition of Control Values 1st: 0.3%
  % inhibition of Control Values 2nd: 3.0%
  % inhibition of Control Values Mean: 1.7%
[7]
  % inhibition of Control Values 1st: 1.2%
  % inhibition of Control Values 2nd: −5.1%
  % inhibition of Control Values Mean: −1.9%
[8]
  % inhibition of Control Values 1st: 0.2%
  % inhibition of Control Values 2nd: −6.5%
  % inhibition of Control Values Mean: −3.1%
[9]
  % inhibition of Control Values 1st: −2.0%
  % inhibition of Control Values 2nd: 2.5%
  % inhibition of Control Values Mean: 0.2%
[10]
  % inhibition of Control Values 1st: 23.8%
  % inhibition of Control Values 2nd: 26.2%
  % inhibition of Control Values Mean: 25.0%
[11]
  % inhibition of Control Values 1st: −8.6%
  % inhibition of Control Values 2nd: −2.9%
  % inhibition of Control Values Mean: −5.7%
[12]
  % inhibition of Control Values 1st: 12.8%
  % inhibition of Control Values 2nd: 3.0%
  % inhibition of Control Values Mean: 7.9%
[13]
  % inhibition of Control Values 1st: 20.1%
  % inhibition of Control Values 2nd: −2.6%
  % inhibition of Control Values Mean: 8.8%
[14]
  % inhibition of Control Values 1st: 127.6%
  % inhibition of Control Values 2nd: 131.0%
  % inhibition of Control Values Mean: 129.3%
[15]
  % inhibition of Control Values 1st: 0.9%
  % inhibition of Control Values 2nd: −4.5%
  % inhibition of Control Values Mean: −1.8%
[16]
  % inhibition of Control Values 1st: −17.7%
  % inhibition of Control Values 2nd: −35.7%
  % inhibition of Control Values Mean: −26.7%
[17]
  % inhibition of Control Values 1st: −3.2%
  % inhibition of Control Values 2nd: −3.1%
  % inhibition of Control Values Mean: −3.2%
[18]
  % inhibition of Control Values 1st: 15.9%
  % inhibition of Control Values 2nd: 16.9%
  % inhibition of Control Values Mean: 16.4%
[19]
  % inhibition of Control Values 1st: −9.4%
  % inhibition of Control Values 2nd: −4.1%
  % inhibition of Control Values Mean: −6.7%
[20]
  % inhibition of Control Values 1st: 17.1%
  % inhibition of Control Values 2nd: −24.5%
  % inhibition of Control Values Mean: −3.7%
[21]
  % inhibition of Control Values 1st: 5.8%
  % inhibition of Control Values 2nd: 14.7%
  % inhibition of Control Values Mean: 10.3%
[22]
  % inhibition of Control Values 1st: 5.2%
  % inhibition of Control Values 2nd: −0.4%
  % inhibition of Control Values Mean: 2.4%
[23]
  % inhibition of Control Values 1st: −3.1%
  % inhibition of Control Values 2nd: −3.7%
  % inhibition of Control Values Mean: −3.4%
